# Experiments:
# bedstraw = experiment: Test B pre/postemergence bedstraw; type: in vivo, Galium aparine
# Method in brief: (§1)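 Herbicidal effect was estimated by eye on a ten-point control scale after plants spent twelve to sixteen days in a greenhouse following soil or foliar treatment. Foliar sprays targeted plants at one to four leaves; all doses were formulated in a non-phytotoxic solvent with surfactant.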
# blackgrass = experiment: Test B pre/postemergence blackgrass; type: in vivo, Alopecurus myosuroides
# Method in brief: as §1
# surinam grass = experiment: Test B pre/postemergence surinam grass; type: in vivo, Brachiaria decumbens
# Method in brief: as §1
# cocklebur = experiment: Test B pre/postemergence cocklebur; type: in vivo, Xanthium strumarium
# Method in brief: as §1
# corn = experiment: Test B pre/postemergence corn; type: in vivo, Zea mays
# Method in brief: as §1
# crabgrass = experiment: Test B pre/postemergence crabgrass; type: in vivo, Digitaria sanguinalis
# Method in brief: as §1
# rape = experiment: Test B pre/postemergence rape; type: in vivo, Brassica napus
# Method in brief: as §1
# soybean = experiment: Test B pre/postemergence soybean; type: in vivo, Glycine max
# Method in brief: as §1
# sugar beet = experiment: Test B pre/postemergence sugar beet; type: in vivo, Beta vulgaris
# Method in brief: as §1
# velvetleaf = experiment: Test B pre/postemergence velvetleaf; type: in vivo, Abutilon theophrasti
# Method in brief: as §1
# wheat = experiment: Test B pre/postemergence wheat; type: in vivo, Triticum aestivum
# Method in brief: as §1
# wild oat = experiment: Test B pre/postemergence wild oat; type: in vivo, Avena fatua
# Method in brief: as §1
# purple nutsedge = experiment: Test B pre/postemergence purple nutsedge; type: in vivo, Cyperus rotundus
# Method in brief: as §1
# rice = experiment: Test B flood test rice; type: in vivo, Oryza sativa
# Method in brief: (§2)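 Flood test on plants grown to the 2-leaf stage; treated plants kept in greenhouse twelve to sixteen days, then visually rated against controls on a 0 (no effect) to 10 (complete control) scale.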
# smallflower flatsedge = experiment: Test B flood test smallflower flatsedge; type: in vivo, Cyperus difformis
# Method in brief: as §2
# duck salad = experiment: Test B flood test duck salad; type: in vivo, Heteranthera limosa
# Method in brief: as §2
# bamyardgrass = experiment: Test B flood test barnyardgrass; type: in vivo, Echinochloa crus-galli
# Method in brief: as §2
# [1] = Postemergence, Rate 62 g/ha, scale 0 to 10, 0 is no effect, 10 is complete control
# [2] = Postemergence, Rate 250 g/ha, scale 0 to 10, 0 no effect, 10 complete control
# [3] = Preemergence, Rate 62 g/ha, scale 0 to 10 (0 no effect, 10 complete control)
# [4] = Preemergence, Rate 125 g/ha, scale 0 to 10 (0 no effect, 10 complete control)
# [5] = Preemergence, Rate 250 g/ha, scale of 0 to 10 where 0 is no effect and 10 is complete control
# [6] = Preemergence, Rate 500 g/ha, scale 0 (no effect) to 10 (complete control)
# [7] = Rate 125 g/ha, Postemergence, scale 0 to 10, 0 no effect, 10 complete control
# [8] = Rate 500 g/ha, Postemergence, scale 0 to 10, 0 no effect, 10 complete control
# [9] = Postemergence, Rate 125 g/ha, scale of 0 to 10 where 0 is no effect and 10 is complete control
# [10] = Rate 250 g/ha, Postemergence, scale 0 to 10, 0 is no effect, 10 is complete control
# [11] = Postemergence (flood test species), Rate 125 g/ha, scale of 0 to 10 where 0 is no effect and 10 is complete control
# [12] = Rate 250 g/ha, Postemergence (flood test), scale 0 to 10, 0 is no effect, 10 is complete control
# [13] = Rate 500 g/ha, listed under Postemergence (flood test species), scale 0 to 10, 0 no effect, 10 complete control
# [14] = flood test, listed under Postemergence, Rate 250 g/ha, scale 0 to 10, 0 no effect, 10 complete control
compound,measurement,setting,value
CCN(CC)C(=O)n1oc(=O)n(-c2cccc3c2CCCC3)c1=O [Compound 89],Bedstraw plant response rating,bedstraw; [1],0
same,Bedstraw plant response rating,bedstraw; [2],0
same,Bedstraw plant response rating,bedstraw; [3],0
same,"Plant response rating, Bedstraw",bedstraw; [4],0
same,"Plant response rating, Bedstraw",bedstraw; [5],0
same,Bedstraw plant response rating,bedstraw; [6],0
same,Bedstraw plant response rating,bedstraw; [7],0
same,Bedstraw plant response rating,bedstraw; [8],3
same,Blackgrass plant response rating,blackgrass; [1],0
same,Blackgrass plant response rating,blackgrass; [9],0
same,Blackgrass plant response rating,blackgrass; [2],0
same,Blackgrass plant response rating,blackgrass; [3],0
same,"Plant response rating, Blackgrass",blackgrass; [4],0
same,"Plant response rating, Blackgrass",blackgrass; [5],0
same,Blackgrass plant response rating,blackgrass; [6],0
same,Blackgrass plant response rating,blackgrass; [8],0
same,B. signalgrass plant response rating,surinam grass; [1],0
same,B. signalgrass plant response rating,surinam grass; [2],0
same,B. signalgrass plant response rating,surinam grass; [3],0
same,"Plant response rating, B. signalgrass",surinam grass; [4],0
same,"Plant response rating, B. signalgrass",surinam grass; [5],0
same,B. signalgrass plant response rating,surinam grass; [6],0
same,B. signalgrass plant response rating,surinam grass; [7],0
same,B. signalgrass plant response rating,"surinam grass; Rate 500 g/ha, Postemergence, scale of 0 to 10 where 0 is no effect and 10 is complete control",0
same,Cocklebur plant response rating,cocklebur; [1],1
same,Cocklebur plant response rating,cocklebur; [9],1
same,Cocklebur plant response rating,cocklebur; [2],2
same,Cocklebur plant response rating,cocklebur; [3],0
same,"Plant response rating, Cocklebur",cocklebur; [4],0
same,"Plant response rating, Cocklebur",cocklebur; [5],0
same,Cocklebur plant response rating,cocklebur; [6],0
same,Cocklebur plant response rating,cocklebur; [8],2
same,Corn plant response rating,corn; [1],0
same,Corn plant response rating,corn; [9],0
same,Corn plant response rating,corn; [2],0
same,Corn plant response rating,corn; [3],0
same,"Plant response rating, Corn",corn; [4],0
same,"Plant response rating, Corn",corn; [5],0
same,Corn plant response rating,corn; [6],0
same,Corn plant response rating,corn; [8],1
same,Crabgrass plant response rating,crabgrass; [1],0
same,Crabgrass plant response rating,crabgrass; [9],0
same,Crabgrass plant response rating,crabgrass; [2],0
same,Crabgrass plant response rating,crabgrass; [3],0
same,"Plant response rating, Crabgrass",crabgrass; [4],0
same,"Plant response rating, Crabgrass",crabgrass; [5],0
same,Crabgrass plant response rating,crabgrass; [6],2
same,Crabgrass plant response rating,crabgrass; [8],2
same,Rape plant response rating,rape; [1],0
same,Rape plant response rating,rape; [9],0
same,Rape plant response rating,rape; [2],0
same,Rape plant response rating,rape; [3],0
same,"Plant response rating, Rape",rape; [4],0
same,"Plant response rating, Rape",rape; [5],0
same,Rape plant response rating,rape; [6],0
same,Rape plant response rating,rape; [8],0
same,Soybean plant response rating,soybean; [1],0
same,Soybean plant response rating,soybean; [9],0
same,Soybean plant response rating,soybean; [3],0
same,"Plant response rating, Soybean",soybean; [4],0
same,"Plant response rating, Soybean",soybean; [5],0
same,Soybean plant response rating,soybean; [6],0
same,"Plant response rating, Soybean",soybean; [10],0
same,Soybean plant response rating,soybean; [8],1
same,Sugarbeets plant response rating,sugar beet; [1],0
same,Sugarbeets plant response rating,sugar beet; [9],0
same,Sugarbeets plant response rating,sugar beet; [3],0
same,"Plant response rating, Sugarbeets",sugar beet; [4],0
same,"Plant response rating, Sugarbeets",sugar beet; [5],0
same,Sugarbeets plant response rating,sugar beet; [6],0
same,"Plant response rating, Sugarbeets",sugar beet; [10],0
same,Sugarbeets plant response rating,sugar beet; [8],6
same,Velvetleaf plant response rating,velvetleaf; [1],0
same,Velvetleaf plant response rating,velvetleaf; [9],0
same,Velvetleaf plant response rating,velvetleaf; [3],0
same,"Plant response rating, Velvetleaf",velvetleaf; [4],0
same,"Plant response rating, Velvetleaf",velvetleaf; [5],0
same,Velvetleaf plant response rating,velvetleaf; [6],0
same,"Plant response rating, Velvetleaf",velvetleaf; [10],0
same,Velvetleaf plant response rating,velvetleaf; [8],3
same,Wheat plant response rating,wheat; [1],0
same,Wheat plant response rating,wheat; [9],0
same,Wheat plant response rating,wheat; [3],0
same,"Plant response rating, Wheat",wheat; [4],0
same,"Plant response rating, Wheat",wheat; [5],0
same,Wheat plant response rating,wheat; [6],0
same,"Plant response rating, Wheat",wheat; [10],0
same,Wheat plant response rating,wheat; [8],0
same,Wild oats plant response rating,wild oat; [1],0
same,Wild oats plant response rating,wild oat; [9],0
same,Wild oats plant response rating,wild oat; [3],0
same,"Plant response rating, Wild oats",wild oat; [4],0
same,"Plant response rating, Wild oats",wild oat; [5],0
same,Wild oats plant response rating,wild oat; [6],0
same,"Plant response rating, Wild oats",wild oat; [10],0
same,Wild oats plant response rating,wild oat; [8],0
same,Nutsedge plant response rating,purple nutsedge; [1],0
same,Nutsedge plant response rating,purple nutsedge; [9],0
same,Nutsedge plant response rating,purple nutsedge; [2],0
same,Nutsedge plant response rating,purple nutsedge; [3],0
same,"Plant response rating, Nutsedge",purple nutsedge; [4],0
same,"Plant response rating, Nutsedge",purple nutsedge; [5],0
same,Nutsedge plant response rating,purple nutsedge; [6],0
same,Nutsedge plant response rating,purple nutsedge; [8],0
same,Rice plant response rating,rice; [11],0
same,Rice plant response rating,rice; [1],0
same,"Plant response rating, Rice",rice; [12],0
same,Rice plant response rating,rice; [13],0
same,S. Flatsedge plant response rating,smallflower flatsedge; [11],0
same,S. Flatsedge plant response rating,smallflower flatsedge; [1],0
same,"Plant response rating, S. Flatsedge",smallflower flatsedge; [12],0
same,S. Flatsedge plant response rating,smallflower flatsedge; [13],0
same,Ducksalad plant response rating,duck salad; [11],0
same,Ducksalad plant response rating,duck salad; [1],0
same,Ducksalad plant response rating,duck salad; [13],0
same,Ducksalad plant response rating,duck salad; [14],0
same,Barnyardgrass plant response rating,bamyardgrass; [1],0
same,Barnyardgrass plant response rating,"bamyardgrass; Rate 125 g/ha, Postemergence section (flood test species), scale 0 to 10, 0 no effect, 10 complete control",0
same,Barnyardgrass plant response rating,bamyardgrass; [13],0
same,Barnyardgrass plant response rating,bamyardgrass; [14],0
